No end group written: not given here.
Assay: Plasma pharmacokinetics of ALM201 in Phase I patients (validated LC-MS/MS, Phoenix WinNonlin)
Conditions: human, plasma, sc; for level at 3 h: day 1 cycle 1, 3 h after dosing; for Tmax: median; for Tmax / AUC(0-t) / Cmax: plasma LC-MS/MS; for AUC(0-t): AUC0-t; for AUC(0-t) / Cmax: Gmean (CV); for level at 0.25 h: day 1 cycle 1, 0.25 h after dosing; for level at 0.75 h: day 1 cycle 1, 0.75 h after dosing; for level at 4 h: day 1 cycle 1, 4 h after dosing
[1] = 40 mg, 40 mg SC, day 1 cycle 1, n = 1
[2] = 40 mg, 40 mg SC, day 3 cycle 1, n = 1
[3] = 40 mg, 40 mg SC, day 18 cycle 1, n = 1
[4] = 40 mg, 40 mg SC, day 18 cycle 2, n = 1
[5] = 40 mg, Plasma concentration, geometric mean (CV%), 40 mg SC, n = 1, LC-MS/MS
[6] = 80 mg, 80 mg SC, day 1 cycle 1, n = 3
[7] = 80 mg, 80 mg SC, day 3 cycle 1, n = 3
[8] = 80 mg, 80 mg SC, day 18 cycle 1, n = 2, CV not calculated
[9] = 80 mg, 80 mg SC, day 18 cycle 2, n = 1
[10] = 80 mg, Plasma concentration, geometric mean (CV%), 80 mg SC, n = 3, LC-MS/MS

Work on IRQQPRDPPTETLELEVSPDPAS [ALM201] yielded a level at 1.5 h (20 mg, Plasma concentration, geometric mean (CV%), 20 mg SC, day 1 cycle 1, 1.5 h after dosing, n = 1, LC-MS/MS) of 542 ng/mL, a level at 2 h (20 mg, Plasma concentration, geometric mean (CV%), 20 mg SC, day 1 cycle 1, 2 h after dosing, n = 1, LC-MS/MS) of 417 ng/mL and a level at 3 h (20 mg, Plasma concentration, geometric mean (CV%), 20 mg SC, n = 1, LC-MS/MS) of 224 ng/mL. It also gave a level at 0.5 h (20 mg, Plasma concentration, geometric mean (CV%), 20 mg SC, day 3 cycle 1, 0.5 h after dosing, n = 1, LC-MS/MS) of 210 ng/mL, a level at 1 h (20 mg, Plasma concentration, geometric mean (CV%), 20 mg SC, day 3 cycle 1, 1 h after dosing, n = 1, LC-MS/MS) of 614 ng/mL and a level at 1.5 h (20 mg, Plasma concentration, geometric mean (CV%), 20 mg SC, day 3 cycle 1, 1.5 h after dosing, n = 1, LC-MS/MS) of 532 ng/mL. The level at 2 h (20 mg, Plasma concentration, geometric mean (CV%), 20 mg SC, day 3 cycle 1, 2 h after dosing, n = 1, LC-MS/MS) was 377 ng/mL, the level at 3.5 h (20 mg, Plasma concentration, geometric mean (CV%), 20 mg SC, day 3 cycle 1, 3.5 h after dosing, n = 1, LC-MS/MS) was 134 ng/mL and the level at 0.5 h (20 mg, Plasma concentration, geometric mean (CV%), 20 mg SC, day 18 cycle 1, 0.5 h after dosing, n = 1, LC-MS/MS) was 194 ng/mL. The level at 1 h (20 mg, Plasma concentration, geometric mean (CV%), 20 mg SC, day 18 cycle 1, 1 h after dosing, n = 1, LC-MS/MS) was 319 ng/mL, the level at 1.5 h (20 mg, Plasma concentration, geometric mean (CV%), 20 mg SC, day 18 cycle 1, 1.5 h after dosing, n = 1, LC-MS/MS) was 314 ng/mL and the level at 2 h (20 mg, Plasma concentration, geometric mean (CV%), 20 mg SC, day 18 cycle 1, 2 h after dosing, n = 1, LC-MS/MS) was 224 ng/mL. For the same sequence, the level at 3.5 h (20 mg, Plasma concentration, geometric mean (CV%), 20 mg SC, day 18 cycle 1, 3.5 h after dosing, n = 1, LC-MS/MS) was 113 ng/mL, the level at 0.5 h (20 mg, Plasma concentration, geometric mean (CV%), 20 mg SC, day 18 cycle 2, 0.5 h after dosing, n = 1, LC-MS/MS) was 279 ng/mL and the level at 1 h (20 mg, Plasma concentration, geometric mean (CV%), 20 mg SC, day 18 cycle 2, 1 h after dosing, n = 1, LC-MS/MS) was 394 ng/mL. The level at 1.5 h (20 mg, Plasma concentration, geometric mean (CV%), 20 mg SC, day 18 cycle 2, 1.5 h after dosing, n = 1, LC-MS/MS) was 352 ng/mL, the level at 2 h (20 mg, Plasma concentration, geometric mean (CV%), 20 mg SC, day 18 cycle 2, 2 h after dosing, n = 1, LC-MS/MS) was 386 ng/mL and the level at 3.5 h (20 mg, Plasma concentration, geometric mean (CV%), 20 mg SC, day 18 cycle 2, 3.5 h after dosing, n = 1, LC-MS/MS) was 162 ng/mL. The Tmax (20 mg, 20 mg SC, day 1 cycle 1, n = 1) was 1.5 h, the Tmax (20 mg, 20 mg SC, day 3 cycle 1, n = 1) was 1 h and the Tmax (20 mg, 20 mg SC, day 18 cycle 1, n = 1) was 1.02 h. It also gave an AUC(0-t) [1] of 1920 ng·h/mL, an AUC(0-t) [2] of 898 ng·h/mL and an AUC(0-t) [3] of 1840 ng·h/mL. The AUC(0-t) [4] was 1950 ng·h/mL, the Cmax [1] was 592 ng/mL and the Cmax [2] was 759 ng/mL. It also gave a Cmax [3] of 405 ng/mL, a level at 0.25 h [5] of 316 ng/mL and a level at 0.75 h [5] of 556 ng/mL. For the same sequence, the level at 1.5 h (40 mg, Plasma concentration, geometric mean (CV%), 40 mg SC, day 1 cycle 1, 1.5 h after dosing, n = 1, LC-MS/MS) was 592 ng/mL, the level at 2 h (40 mg, Plasma concentration, geometric mean (CV%), 40 mg SC, day 1 cycle 1, 2 h after dosing, n = 1, LC-MS/MS) was 540 ng/mL and the level at 3 h [5] was 368 ng/mL. For the same sequence, the level at 4 h [5] was 223 ng/mL, the level at 5 h (40 mg, Plasma concentration, geometric mean (CV%), 40 mg SC, day 1 cycle 1, 5 h after dosing, n = 1, LC-MS/MS) was 158 ng/mL and the level at 0.5 h (40 mg, Plasma concentration, geometric mean (CV%), 40 mg SC, day 3 cycle 1, 0.5 h after dosing, n = 1, LC-MS/MS) was 264 ng/mL. It also gave a level at 1 h (40 mg, Plasma concentration, geometric mean (CV%), 40 mg SC, day 3 cycle 1, 1 h after dosing, n = 1, LC-MS/MS) of 444 ng/mL, a level at 1.5 h (40 mg, Plasma concentration, geometric mean (CV%), 40 mg SC, day 3 cycle 1, 1.5 h after dosing, n = 1, LC-MS/MS) of 759 ng/mL and a level at 2 h (40 mg, Plasma concentration, geometric mean (CV%), 40 mg SC, day 3 cycle 1, 2 h after dosing, n = 1, LC-MS/MS) of 656 ng/mL. For the same sequence, the level at 0.5 h (40 mg, Plasma concentration, geometric mean (CV%), 40 mg SC, day 18 cycle 1, 0.5 h after dosing, n = 1, LC-MS/MS) was 348 ng/mL, the level at 1 h (40 mg, Plasma concentration, geometric mean (CV%), 40 mg SC, day 18 cycle 1, 1 h after dosing, n = 1, LC-MS/MS) was 405 ng/mL and the level at 1.5 h (40 mg, Plasma concentration, geometric mean (CV%), 40 mg SC, day 18 cycle 1, 1.5 h after dosing, n = 1, LC-MS/MS) was 397 ng/mL. The level at 2 h (40 mg, Plasma concentration, geometric mean (CV%), 40 mg SC, day 18 cycle 1, 2 h after dosing, n = 1, LC-MS/MS) was 368 ng/mL, the level at 3.5 h (40 mg, Plasma concentration, geometric mean (CV%), 40 mg SC, day 18 cycle 1, 3.5 h after dosing, n = 1, LC-MS/MS) was 377 ng/mL and the level at 5 h (40 mg, Plasma concentration, geometric mean (CV%), 40 mg SC, day 18 cycle 1, 5 h after dosing, n = 1, LC-MS/MS) was 113 ng/mL. For the same sequence, the level at 0.5 h (40 mg, Plasma concentration, geometric mean (CV%), 40 mg SC, day 18 cycle 2, 0.5 h after dosing, n = 1, LC-MS/MS) was 384 ng/mL, the level at 1 h (40 mg, Plasma concentration, geometric mean (CV%), 40 mg SC, day 18 cycle 2, 1 h after dosing, n = 1, LC-MS/MS) was 583 ng/mL and the level at 1.5 h (40 mg, Plasma concentration, geometric mean (CV%), 40 mg SC, day 18 cycle 2, 1.5 h after dosing, n = 1, LC-MS/MS) was 565 ng/mL. It also gave a level at 2 h (40 mg, Plasma concentration, geometric mean (CV%), 40 mg SC, day 18 cycle 2, 2 h after dosing, n = 1, LC-MS/MS) of 571 ng/mL, a level at 3.5 h (40 mg, Plasma concentration, geometric mean (CV%), 40 mg SC, day 18 cycle 2, 3.5 h after dosing, n = 1, LC-MS/MS) of 347 ng/mL and a Tmax [1] of 1.63 h. It also gave a Tmax [2] of 1.5 h, a Tmax [3] of 1 h and a Tmax [4] of 1.03 h. It also gave an AUC(0-t) [6] of 3380 ng·h/mL, an AUC(0-t) [7] of 2970 ng·h/mL and an AUC(0-t) [8] of 3500 ng·h/mL. For the same sequence, the AUC(0-t) [9] was 3230 ng·h/mL, the Cmax [6] was 835 ng/mL and the Cmax [7] was 861 ng/mL. The Cmax [8] was 1090 ng/mL, the Cmax [9] was 849 ng/mL and the level at 0.25 h [10] was 292 ng/mL. The level at 0.75 h [10] was 700 ng/mL, the level at 1.5 h (80 mg, Plasma concentration, geometric mean (CV%), 80 mg SC, day 1 cycle 1, 1.5 h after dosing, n = 3, LC-MS/MS) was 800 ng/mL and the level at 2 h (80 mg, Plasma concentration, geometric mean (CV%), 80 mg SC, day 1 cycle 1, 2 h after dosing, n = 3, LC-MS/MS) was 727 ng/mL. The level at 3 h [10] was 689 ng/mL, the level at 4 h [10] was 556 ng/mL and the level at 5 h (80 mg, Plasma concentration, geometric mean (CV%), 80 mg SC, day 1 cycle 1, 5 h after dosing, n = 3, LC-MS/MS) was 359 ng/mL. For the same sequence, the level at 6 h (80 mg, Plasma concentration, geometric mean (CV%), 80 mg SC, day 1 cycle 1, 6 h after dosing, n = 3, LC-MS/MS) was 248 ng/mL, the level at 0.5 h (80 mg, Plasma concentration, geometric mean (CV%), 80 mg SC, day 3 cycle 1, 0.5 h after dosing, n = 3, LC-MS/MS) was 578 ng/mL and the level at 1 h (80 mg, Plasma concentration, geometric mean (CV%), 80 mg SC, day 3 cycle 1, 1 h after dosing, n = 3, LC-MS/MS) was 684 ng/mL. For the same sequence, the level at 1.5 h (80 mg, Plasma concentration, geometric mean (CV%), 80 mg SC, day 3 cycle 1, 1.5 h after dosing, n = 3, LC-MS/MS) was 827 ng/mL, the level at 2 h (80 mg, Plasma concentration, geometric mean (CV%), 80 mg SC, day 3 cycle 1, 2 h after dosing, n = 3, LC-MS/MS) was 826 ng/mL and the level at 3.5 h (80 mg, Plasma concentration, geometric mean (CV%), 80 mg SC, day 3 cycle 1, 3.5 h after dosing, n = 3, LC-MS/MS) was 524 ng/mL. It also gave a level at 5 h (80 mg, Plasma concentration, geometric mean (CV%), 80 mg SC, day 3 cycle 1, 5 h after dosing, n = 3, LC-MS/MS) of 325 ng/mL, a level at 0.5 h (80 mg, Plasma concentration, geometric mean (CV%), 80 mg SC, day 18 cycle 1, 0.5 h after dosing, n = 2, LC-MS/MS) of 769 ng/mL and a level at 1 h (80 mg, Plasma concentration, geometric mean (CV%), 80 mg SC, day 18 cycle 1, 1 h after dosing, n = 2, LC-MS/MS) of 946 ng/mL. For the same sequence, the level at 1.5 h (80 mg, Plasma concentration, geometric mean (CV%), 80 mg SC, day 18 cycle 1, 1.5 h after dosing, n = 2, LC-MS/MS) was 884 ng/mL, the level at 2 h (80 mg, Plasma concentration, geometric mean (CV%), 80 mg SC, day 18 cycle 1, 2 h after dosing, n = 2, LC-MS/MS) was 1060 ng/mL and the level at 3.5 h (80 mg, Plasma concentration, geometric mean (CV%), 80 mg SC, day 18 cycle 1, 3.5 h after dosing, n = 2, LC-MS/MS) was 545 ng/mL. It also gave a level at 5 h (80 mg, Plasma concentration, geometric mean (CV%), 80 mg SC, day 18 cycle 1, 5 h after dosing, n = 2, LC-MS/MS) of 407 ng/mL, a level at 0.5 h (80 mg, Plasma concentration, geometric mean (CV%), 80 mg SC, day 18 cycle 2, 0.5 h after dosing, n = 1, LC-MS/MS) of 394 ng/mL and a level at 1 h (80 mg, Plasma concentration, geometric mean (CV%), 80 mg SC, day 18 cycle 2, 1 h after dosing, n = 1, LC-MS/MS) of 808 ng/mL. The level at 1.5 h (80 mg, Plasma concentration, geometric mean (CV%), 80 mg SC, day 18 cycle 2, 1.5 h after dosing, n = 1, LC-MS/MS) was 659 ng/mL, the level at 2 h (80 mg, Plasma concentration, geometric mean (CV%), 80 mg SC, day 18 cycle 2, 2 h after dosing, n = 1, LC-MS/MS) was 639 ng/mL and the level at 3.5 h (80 mg, Plasma concentration, geometric mean (CV%), 80 mg SC, day 18 cycle 2, 3.5 h after dosing, n = 1, LC-MS/MS) was 849 ng/mL. It also gave a Tmax [6] of 1.53 h and a Tmax (80 mg, 80 mg SC, day 18 cycle 1, n = 2) of 1.23 h.

Source: paper PMC9276671, “A first-in-human Phase I dose-escalation trial of the novel therapeutic peptide, ALM201, demonstrates a favourable safety profile in unselected patients with ovarian cancer and other advanced solid tumours” (British Journal of Cancer, 2022)
